Values joined by “and” are separate entries in the source; they are usually repeats but may differ in a detail not shown here. Equal entries are not always repeated. Where two headings read alike, the source gives them in different places. One block for each compound: values may come before it.
Key:
mice = test: In Vivo Antagonism of Clonidine-Induced Anti-Nociception (phenyl-p-quinone writhing); settings: Mus musculus; for ED50: read-out: ED50, Antagonism of Clonidine Analgesia; for responders at 3 mg/kg: 3 mg/kg s.c.
Experimental: (§1) The α2 -adrenergic antagonist activity of the compounds of the invention was determined by three screening methods, described as follows:
In Vivo Antagonism of Clonidine-Induced Anti-Nociception
The intraperitoneal administration of phenyl-p-quinone (PPQ) to mice elicits a nociceptive response which consists of abdominal writhing and extension of the hind limbs. This writhing response is prevented in mice pretreated with clonidine. […] To groups of thirty male mice for each experiment, the test compound dissolved in 0.9% sodium chloride was administered either subcutaneously or orally. […] The number of mice that writhed at least three times during the five minute observation period was counted. The number of mice that writhed was scored for each dose of antagonist, and the percentage reversal of clonidine-induced anti-nociception (analgesia) was calculated by dividing the number of animals writhing by the total number of test animals and multiplying the quotient by 100. The results are also expressed as an ED50, the effective dose (in mg./kg.) in 50% of the animals to effect antagonism of clonidine-induced analgesia.

[1] = target: T1, isolated, electrically stimulated rat vas deferens (Rattus norvegicus, UniProt P22909); test: Vas Deferens Assay: antagonism of clonidine-induced inhibition of twitch height in isolated, electrically stimulated rat vas deferens; settings: for inhibition at 0.5 µM: 500 nM; for Twitch height: reversal by yohimbine
T1 construct: isolated, electrically stimulated rat vas deferens; from tissue; host or cells: isolated rat vas deferens
T1 sequence (P22909 1-465): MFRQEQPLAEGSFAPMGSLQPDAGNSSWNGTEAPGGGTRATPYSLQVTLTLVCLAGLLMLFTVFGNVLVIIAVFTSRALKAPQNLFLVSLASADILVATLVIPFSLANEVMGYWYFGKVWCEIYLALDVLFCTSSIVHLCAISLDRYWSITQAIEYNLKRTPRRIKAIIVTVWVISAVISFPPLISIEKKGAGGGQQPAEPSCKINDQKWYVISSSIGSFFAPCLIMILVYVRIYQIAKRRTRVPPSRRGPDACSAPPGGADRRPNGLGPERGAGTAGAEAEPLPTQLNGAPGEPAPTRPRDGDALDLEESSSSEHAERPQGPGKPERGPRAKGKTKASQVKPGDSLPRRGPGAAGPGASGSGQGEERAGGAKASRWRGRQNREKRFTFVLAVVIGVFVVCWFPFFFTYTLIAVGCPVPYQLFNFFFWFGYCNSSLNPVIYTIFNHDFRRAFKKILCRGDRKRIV
Experimental: as §1
Results are expressed either in terms of percent inhibition at the concentration of antagonist used or as pA2 values, determined by the Schild method; cf. Tallarida and Murray, Manual of Pharmacologic Calculations, pp. 29-32 (Springer-Verlag, 1981). The pA2 value is the negative logarithms of the concentration of antagonist required to cause a two-fold shift in the dose response curve to clonidine-induced inhibition of twitch height.

[2] = phenylquinone writing test; cited from earlier work
[3] = cited from earlier work
α2-adrenergic receptor = target: T2, α2-adrenergic receptor (Rattus norvegicus, UniProt P22909); test: Tritiated Clonidine Receptor Binding Assay (inhibition of 3H-clonidine binding to rat cerebral cortex membranes); settings: for Ki: 0.4 nM 3H-clonidine, rat cerebral cortex membranes; for inhibition at 1 µM: read-out: % I, Clonidine [3H] Binding, 1000 nM
T2 construct: Homogenates of rat cerebral cortex; from tissue; host or cells: rat cerebral cortex homogenate (membranes)
T2 sequence (P22909 1-465): T1 sequence (P22909 1-465)
Experimental: as §1
The results are expressed either in terms of percent inhibition at the concentration of antagonist used or as Ki values.

[4] = sc, read-out: % A, Antagonism of Clonidine Analgesia, 1 mg/kg s.c.
[5] = sc, read-out: % A, Antagonism of Clonidine Analgesia
[6] = sc, read-out: % A, Antagonism of Clonidine Analgesia, 10 mg/kg s.c.
[7] = po, read-out: % A, Antagonism of Clonidine Analgesia, 10 mg/kg p.o.
[8] = po, read-out: % A, Antagonism of Clonidine Analgesia, 30 mg/kg p.o.
[9] = rat, 100 nM, read-out: % A, rat vas deferens
[10] = rat, read-out: % A, rat vas deferens
[11] = read-out: pA2, rat vas deferens (converted)
[12] = sc, read-out: % A, Antagonism of Clonidine Analgesia, 30 mg/kg s.c.
[13] = rat, read-out: % A, rat vas deferens, 100 nM

SMILES: C[C@H]1c2ccccc2N(C)[C@@H]1C1=NCCN1 (relative stereo) [Example 1T]
- ED50 (mice; po, p.o.): 41 mg/kg
- Kb [1]: 110 nM

SMILES: C[C@@H]1c2ccccc2N(C)[C@@H]1C1=NCCN1 (relative stereo) [Example 1Z]
- responders at 0.1 mg/kg (mice; sc, read-out: % A, Antagonism of Clonidine Analgesia, 0.1 mg/kg s.c.): 80%
- responders at 0.3 mg/kg (mice; sc, read-out: % A, Antagonism of Clonidine Analgesia, 0.3 mg/kg s.c.): 70%
- responders at 1 mg/kg (mice; [4]): 30%
- responders at 3 mg/kg (mice; [5]): 0%
- responders at 10 mg/kg (mice; [6]): 0%
- agonist activity, rat vas deferens ([1]; as agonist): active
- antagonist activity, rat vas deferens ([1]; as antagonist): Inac.

SMILES: c1ccc2c(c1)CCN2C1=NCCN1 [1-(4,5-dihydro-1H-imidazol-2-yl)-2,3-dihydro-1H-indole]
- analgesic activity [2]: active
- analeptic activity, antagonism of chloral hydrate ([3]; chloral hydrate): inactive
- analeptic activity, antagonism of pentobarbital ([3]; pentobarbital): active

SMILES: CN1c2ccc(F)cc2CC1C1=NCCN1 (centres unmarked) [Example 1A, 2-(4,5-dihydro-1H-imidazol-2-yl)-5-fluoro-2,3-dihydro-1-methyl-1H-indole]
- ED50 (mice; po, p.o.): 0.75 mg/kg
- ED50 (mice; sc, s.c.): 0.0071 mg/kg
- Kb [1]: 3.55 nM
- Ki (α2-adrenergic receptor): 0.92 nM

- % A, rat vas deferens ([1]; 100 nM, 0.1 µM): 7%
- inhibition at 0.1 µM [1, 9]: 6%
- inhibition at 0.5 µM [1, 10]: 52%
- inhibition at 0.5 µM ([1]; rat, read-out: reduced twitch height): 67%
- % I, Clonidine [3H] Binding (α2-adrenergic receptor; concentration not given): 43.5%
SMILES: COCC1(C2=NCCN2)Cc2ccccc2N1C (centres unmarked) [Example 1AA]
- responders at 1 mg/kg (mice; po, read-out: % A, Antagonism of Clonidine Analgesia, 1 mg/kg p.o.): 0%
- responders at 10 mg/kg (mice; [7]): 10%
- responders at 30 mg/kg (mice; [8]): 70%
- ED50 (mice; po, p.o.): 21.8 mg/kg
- ED50 (mice; sc, s.c.): 2.6 mg/kg

- Twitch height [1]: reversed by yohimbine
SMILES: CSCC1(C2=NCCN2)Cc2ccccc2N1C (centres unmarked) [Example 1AB]
- responders at 10 mg/kg (mice; [7]): 0%
- responders at 30 mg/kg (mice; [8]): 90%

- Twitch height [1]: reversed by yohimbine
SMILES: CC(C)N(CC1(C2=NCCN2)Cc2ccccc2N1C)C(C)C (centres unmarked) [Example 1AC]
- responders at 10 mg/kg (mice; [7]): 50%
- responders at 30 mg/kg (mice; [8]): 50%

- fold shift of clonidine ([1]; 20 μm): 3.5 fold
SMILES: CCN1CCN=C1C1C(C)c2ccccc2N1C (centres unmarked) [Example 1AD]

- fold shift of clonidine ([1]; 20 μm): 15 fold
SMILES: CC1c2ccccc2N(C)C1CC1=NCCN1 (centres unmarked) [Example 1AE]

SMILES: C=C1c2ccccc2N(C)C1(C)C1=NCCN1 (centres unmarked) [Example 1AF]
- fold shift of clonidine ([1]; 10 μm): 23.9 fold

- fold shift of clonidine ([1]; 10 μm): 3.9 fold
SMILES: COc1c(C2=NCCN2)n(C)c2ccccc12 [Example 1AG]

SMILES: CN1c2ccccc2CC1C1=NCCN1 (centres unmarked) [Example 1B]
- ED50 (mice; sc, s.c.): 12 mg/kg
- Kb [1]: 3.31 nM
- Ki (α2-adrenergic receptor): 0.46 nM

SMILES: CCN1c2ccccc2CC1C1=NCCN1 (centres unmarked) [Example 1C]
- ED50 (mice; po, p.o.): 0.098 mg/kg
- ED50 (mice; sc, s.c.): 0.034 mg/kg
- Kb [1]: 1.23 nM
- Ki (α2-adrenergic receptor): 0.91 nM

- Kb [1, 11]: 110 nM
- inhibition at 1 µM (α2-adrenergic receptor): 85%
SMILES: C=CCC1(C2=NCCN2)Cc2ccccc2N1C (centres unmarked) [Example 1D]
- ED50 (mice; po, p.o.): 11.1 mg/kg

- Kb [1, 11]: 11.7 nM
- Ki (α2-adrenergic receptor): 2.3 nM
SMILES: c1ccc(CN2c3ccccc3CC2C2=NCCN2)cc1 (centres unmarked) [Example 1E]
- ED50 (mice; po, p.o.): 0.051 mg/kg
- ED50 (mice; sc, s.c.): 0.18 mg/kg

SMILES: CN1c2ccccc2CC1(C)C1=NCCN1 (centres unmarked) [Example 1F]
- ED50 (mice; po, p.o.): 8.8 mg/kg
- Kb [1]: 28.2 nM
- Ki (α2-adrenergic receptor): 3.39 nM

- Ki (α2-adrenergic receptor): 355 nM
SMILES: CN1c2ccccc2CC1CC1=NCCN1 (centres unmarked) [Example 1G]
- responders at 30 mg/kg (mice; [12]): 0%

SMILES: CN1c2ccc(Cl)cc2CC1C1=NCCN1 (centres unmarked) [Example 1H]
- ED50 (mice; po, p.o.): 1.5 mg/kg
- Kb [1]: 2.75 nM

SMILES: CCCN1c2ccccc2CC1C1=NCCN1 (centres unmarked) [Example 1J]
- Kb [1]: 1.74 nM

SMILES: CN1c2c(Cl)cccc2CC1C1=NCCN1 (centres unmarked) [Example 1K]
- responders at 0.03 mg/kg (mice; sc, read-out: % A, Antagonism of Clonidine Analgesia, 0.03 mg/kg s.c.): 70%
- responders at 1 mg/kg (mice; [4]): 100%
- responders at 3 mg/kg (mice; [5]): 100%
- responders at 10 mg/kg (mice; [6]): 100%
- Kb [1]: 1.58 nM

SMILES: CCCCN1c2ccccc2CC1C1=NCCN1 (centres unmarked) [Example 1L]
- responders at 3 mg/kg (mice; [5]): 20%
- responders at 5.5 mg/kg (mice; sc, read-out: % A, Antagonism of Clonidine Analgesia, 5.5 mg/kg s.c.): 100%
- responders at 10 mg/kg (mice; [6]): 100%
- Kb [1]: 1.58 nM

SMILES: C=CCN1c2ccccc2CC1C1=NCCN1 (centres unmarked) [Example 1M]
- ED50 (mice; po, p.o.): 2.6 mg/kg
- Kb [1]: 0.851 nM

SMILES: CCOCCN1c2ccccc2CC1C1=NCCN1 (centres unmarked) [Example 1N]
- ED50 (mice; po, p.o.): 26.5 mg/kg
- Kb [1]: 15.5 nM

SMILES: c1ccc2c(c1)CC(C1=NCCN1)N2 (centres unmarked) [Example 1O]
- ED50 (mice; po, p.o.): 1.8 mg/kg
- Kb [1]: 6.92 nM

- Kb [1, 11]: 25.7 nM
SMILES: CN1c2ccc(Cc3ccccc3)cc2CC1C1=NCCN1 (centres unmarked) [Example 1P]
- ED50 (mice; sc, s.c.): 11.3 mg/kg

- inhibition at 0.1 µM [1, 9]: 81%
- inhibition at 0.5 µM [1, 10]: 94%
SMILES: c1ccc(CCN2c3ccccc3CC2C2=NCCN2)cc1 (centres unmarked) [Example 1Q]

SMILES: c1ccc(N2c3ccccc3CC2C2=NCCN2)cc1 (centres unmarked) [Example 1R]
- ED50 (mice; po, p.o.): 19.8 mg/kg
- inhibition at 0.1 µM [1, 13]: 100%

SMILES: CN1c2c(Cl)cc(Cl)cc2CC1C1=NCCN1 (centres unmarked) [Example 1S]
- ED50 (mice; po, p.o.): 60.1 mg/kg
- Kb [1]: 10 nM

SMILES: c1ccc2c(c1)CCC(C1=NCCN1)N2 (centres unmarked) [Example 1U]
- ED50 (mice; po, p.o.): 3.8 mg/kg
- Kb [1]: 9.33 nM

SMILES: CN1c2ccccc2CCC1C1=NCCN1 (centres unmarked) [Example 1V]
- ED50 (mice; po, p.o.): 2.6 mg/kg
- Kb [1]: 7.41 nM

- % A, rat vas deferens ([1]; 0.1 nM, 0.0001 µM): 3%
- % A, rat vas deferens ([1]; 1 nM, 0.001 µM): 0% and 1%
- inhibition at 0.0001 µM ([1]; rat, 0.1 nM): 2%
- inhibition at 1 µM (α2-adrenergic receptor): 44.6%
SMILES: c1ccc(C2CC(C3=NCCN3)Nc3ccccc32)cc1 (centres unmarked) [Example 1W]

SMILES: Cn1c(CC2=NCCN2)cc2ccccc21 [Example 1X]
- responders at 10 mg/kg (mice; [7]): 0%
- responders at 30 mg/kg (mice; [8]): 10%
- responders at 100 mg/kg (mice; po, read-out: % A, Antagonism of Clonidine Analgesia, 100 mg/kg p.o.): 50%
- responders at 10 mg/kg (mice; [6]): 50%
- responders at 30 mg/kg (mice; [12]): 60%
- responders at 100 mg/kg (mice; sc, read-out: % A, Antagonism of Clonidine Analgesia, 100 mg/kg s.c.): 50%
- Kb [1]: 33.1 nM

SMILES: Cn1c(C2=NCCN2)cc2ccccc21 [Example 1Y]
- inhibition at 0.1 µM [1, 13]: 3%
- inhibition at 1 µM (α2-adrenergic receptor): 32.5%

From patent US5017584A, “Antidepressant 2-(4,5-dihydro-1H-imidazolyl)-dihydro-1H-indoles, -1,2,3,4-tetrahydroquinolines and -1H-indoles, and methods of use thereas” (Sterling Drug Inc., priority 1985, dated 1991)
